Results reported in patent US10988477B2 (Merck Patent GmbH, priority 2018, dated 2021).

Legend:
[1] = target: intracellular GCN2 (phosphorylation of the GCN2 substrate eIF2α) (Homo sapiens, UniProt Q9P2K8); test: GCN2 cellular inhibition assay (AlphaScreen SureFire P-eIF2α Ser51, borrelidin-treated U2OS cells); assay type: cell-based; conditions: biomarker assay, phosphorylated eIF2α Ser51 in borrelidin-treated U2OS cells
Procedure, shortened: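 U2OS cells adhered overnight, then treated with compounds (4-fold serial dilutions from 40 μM final) plus borrelidin 10 μM final for 1 h at 37 °C. Lysate eIF2α Ser51 phosphorylation measured by AlphaScreen SureFire. Percent inhibition calculated relative to borrelidin-only wells.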

GCN2 kinase = GCN2 kinase (Homo sapiens, UniProt Q9P2K8); test: GCN2 enzyme inhibition assay (Transcreener ADP2 fluorescence polarization); assay type: biochemical; conditions: 280 μM ATP
Procedure, shortened: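 Human GCN2 (4 nM) preincubated 10 min with compound (0–8 μM) and 200 μM (RS)7 peptide in Tris-HCl pH 7.5, NaCl, MgCl2, DTT. Reaction started with 280 μM ATP, run 1 h at 25 °C. ADP detected by Transcreener fluorescence polarization. IC50 and Ki(app) fitted by tight-binding algorithm.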

[2] = compounds of Formula II, 4 nM GCN2 kinase
[3] = Enzyme activity for compounds of Formula IV, Ki(app), 25° C.

GCN2 kinase, sequence (Q9P2K8 whole entry): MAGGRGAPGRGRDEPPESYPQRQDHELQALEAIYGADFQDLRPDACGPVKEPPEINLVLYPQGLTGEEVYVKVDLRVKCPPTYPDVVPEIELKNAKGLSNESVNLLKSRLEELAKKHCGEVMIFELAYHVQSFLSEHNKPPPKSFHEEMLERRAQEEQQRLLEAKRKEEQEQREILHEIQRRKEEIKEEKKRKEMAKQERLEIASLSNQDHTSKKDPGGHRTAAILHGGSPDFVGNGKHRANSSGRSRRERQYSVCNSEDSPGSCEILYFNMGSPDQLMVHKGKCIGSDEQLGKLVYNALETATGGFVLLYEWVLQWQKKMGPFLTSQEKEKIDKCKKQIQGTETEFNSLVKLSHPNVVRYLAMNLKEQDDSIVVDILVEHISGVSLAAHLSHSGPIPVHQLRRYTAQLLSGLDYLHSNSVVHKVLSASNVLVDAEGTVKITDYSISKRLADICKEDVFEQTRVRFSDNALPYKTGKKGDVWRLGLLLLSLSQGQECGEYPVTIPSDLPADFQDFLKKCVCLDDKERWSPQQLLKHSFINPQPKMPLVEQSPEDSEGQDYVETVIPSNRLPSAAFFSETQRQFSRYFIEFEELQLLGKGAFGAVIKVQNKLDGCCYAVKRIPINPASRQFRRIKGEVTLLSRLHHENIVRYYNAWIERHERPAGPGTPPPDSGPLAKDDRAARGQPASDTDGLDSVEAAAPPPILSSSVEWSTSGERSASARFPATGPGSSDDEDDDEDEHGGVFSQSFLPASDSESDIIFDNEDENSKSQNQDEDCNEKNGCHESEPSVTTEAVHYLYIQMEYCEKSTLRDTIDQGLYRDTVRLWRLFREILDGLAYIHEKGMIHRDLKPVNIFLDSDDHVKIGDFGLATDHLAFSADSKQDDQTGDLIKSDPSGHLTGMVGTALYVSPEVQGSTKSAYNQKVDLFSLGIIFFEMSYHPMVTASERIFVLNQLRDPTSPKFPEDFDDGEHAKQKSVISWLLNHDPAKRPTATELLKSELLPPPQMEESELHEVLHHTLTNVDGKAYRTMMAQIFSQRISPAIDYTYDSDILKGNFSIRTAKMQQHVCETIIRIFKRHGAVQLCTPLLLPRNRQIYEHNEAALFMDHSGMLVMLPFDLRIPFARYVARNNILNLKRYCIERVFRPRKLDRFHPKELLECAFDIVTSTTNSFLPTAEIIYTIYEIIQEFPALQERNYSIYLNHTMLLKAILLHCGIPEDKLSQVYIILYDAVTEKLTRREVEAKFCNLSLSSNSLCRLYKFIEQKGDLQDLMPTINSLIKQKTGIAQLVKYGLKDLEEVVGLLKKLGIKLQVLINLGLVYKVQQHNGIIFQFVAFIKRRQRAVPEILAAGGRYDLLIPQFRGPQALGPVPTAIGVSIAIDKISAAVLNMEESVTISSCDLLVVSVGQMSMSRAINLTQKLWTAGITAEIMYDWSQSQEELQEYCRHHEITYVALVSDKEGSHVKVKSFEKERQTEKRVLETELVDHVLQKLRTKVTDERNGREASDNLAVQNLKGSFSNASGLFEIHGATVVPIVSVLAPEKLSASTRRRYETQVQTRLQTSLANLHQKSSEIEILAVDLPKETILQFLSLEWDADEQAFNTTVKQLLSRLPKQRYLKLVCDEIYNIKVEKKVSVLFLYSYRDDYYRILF
intracellular GCN2 (phosphorylation of the GCN2 substrate eIF2α), sequence (Q9P2K8 whole entry): as above

IC50 ([1]; compounds of Formula II)	Ki (GCN2 kinase; [2])	IC50 ([1]; compounds of Formula IV)	Ki (GCN2 kinase; [3])	Structure (SMILES)
		500 to 5000 nM	10 to 100 nM	FC(F)(F)c1cn2c(-c3nccc(N4CCOC(c5cn[nH]c5)C4)n3)cnc2cn1 (single isomer, unassigned) [IV-7, 2-(1H-Pyrazol-4-yl)-4-(2-(6-(trifluoromethyl)imidazo[1,2-a]pyrazin-3-yl)pyrimidin-4-yl)morpholine]
		> 5000 nM	100 to 1000 nM	FC(F)c1cn2c(-c3nccc(N4CCC5(CCC5)C4)n3)cnc2cn1 [IV-75, 3-[4-(6-Azaspiro[3.4]octan-6-yl)pyrimidin-2-yl]-6-(difluoromethyl)imidazo[1,2-a]pyrazine]
		> 5000 nM	100 to 1000 nM	NC(=O)Cc1cccc(-c2ccnc(-c3cnc4cnc(C(F)F)cn34)n2)c1 [IV-155, 2-(3-(2-(6-(Difluoromethyl)imidazo[1,2-a]pyrazin-3-yl)pyrimidin-4-yl)phenyl)acetamide]
		> 5000 nM	10 to 100 nM	FC(F)(F)c1cn2c(-c3nccc(N4CC(c5cn[nH]c5)NC(C(F)(F)F)C4)n3)cnc2cn1 (stereo not shown) [IV-558, 3-(4-(3-(1H-Pyrazol-4-yl)-5-(trifluoromethyl)piperazin-1-yl)pyrimidin-2-yl)-6-(trifluoromethyl)imidazo[1,2-a]pyrazine]
		> 5000 nM	100 to 1000 nM	CS(=O)(=O)NC[C@@H]1CN(c2ccnc(-c3cnc4cnc(C(F)F)cn34)n2)CCO1 [IV-23, (S)—N-((4-(2-(6-(Difluoromethyl)imidazo[1,2-a]pyrazin-3-yl)pyrimidin-4-yl)morpholin-2-yl)methyl)methanesulfonamide]
		500 to 5000 nM	< 10 nM	Cc1nc(C2CCCN(c3ccnc(-c4cnc5cnc(Br)cn45)n3)C2)c[nH]1 (stereo not shown) [IV-355, 6-Bromo-3-(4-(3-(2-methyl-1H-imidazol-4-yl)piperidin-1-yl)pyrimidin-2-yl)imidazo[1,2-a]pyrazine]
		500 to 5000 nM	10 to 100 nM	CC1CN(c2ccnc(-c3cnc4cnc(C(F)(F)F)cn34)n2)CC(c2cn[nH]c2)N1C (stereo not shown) [IV-195, 3-(4-(3,4-Dimethyl-5-(1H-pyrazol-4-yl)piperazin-1-yl)pyrimidin-2-yl)-6-(trifluoromethyl)imidazo[1,2-a]pyrazine]
		500 to 5000 nM	< 10 nM	FC(F)(F)c1cn2c(-c3nccc(N4CCC(c5c[nH]nc5C(F)(F)F)C4)n3)cnc2cn1 (single isomer, unassigned) [IV-629, 6-(Trifluoromethyl)-3-(4-(3-(3-(trifluoromethyl)-1H-pyrazol-4-yl)pyrrolidin-1-yl)pyrimidin-2-yl)imidazo[1,2-a]pyrazine]
		> 5000 nM	100 to 1000 nM	FC(F)(F)c1cn2c(-c3nccc(N4CCC(C5CCOC5)C4)n3)cnc2cn1 (stereo not shown) [IV-609, 3-(4-(3-(Tetrahydrofuran-3-yl)pyrrolidin-1-yl)pyrimidin-2-yl)-6-(trifluoromethyl)imidazo[1,2-a]pyrazine]
		> 5000 nM	100 to 1000 nM	CS(=O)(=O)NCCC1CCCN(c2ccnc(-c3cnc4cnc(C(F)F)cn34)n2)C1 (stereo not shown) [IV-43, N-(2-(1-(2-(6-(Difluoromethyl)imidazo[1,2-a]pyrazin-3-yl)pyrimidin-4-yl)piperidin-3-yl)ethyl)methanesulfonamide]
		500 to 5000 nM	10 to 100 nM	CC1CN(c2ccnc(-c3cnc4cnc(C(F)(F)F)cn34)n2)CC(c2cn[nH]c2)N1 (single isomer, unassigned) [IV-461, 3-(4-(3-Methyl-5-(1H-pyrazol-4-yl)piperazin-1-yl)pyrimidin-2-yl)-6-(trifluoromethyl)imidazo[1,2-a]pyrazine]
		< 500 nM	< 10 nM	CC1CN(c2ccnc(-c3cnc4cnc(C(F)(F)F)cn34)n2)CC(c2cn[nH]c2)O1 (stereo not shown) [IV-10, 2-Methyl-6-(1H-pyrazol-4-yl)-4-(2-(6-(trifluoromethyl)imidazo[1,2-a]pyrazin-3-yl)pyrimidin-4-yl)morpholine]

Second part, the compound before the results:

Structure (SMILES)	IC50 ([1]; compounds of Formula II)	Ki (GCN2 kinase; [2])	IC50 ([1]; compounds of Formula IV)	Ki (GCN2 kinase; [3])
CC1CC(CNS(C)(=O)=O)C(C)N(c2cc(-c3cnc4ccc(C(F)F)nn34)ncn2)C1 (stereo not shown) [II-511, N-((1-(6-(6-(Difluoromethyl)imidazo[1,2-b]pyridazin-3-yl)pyrimidin-4-yl)-2,5-dimethylpiperidin-3-yl)methyl)methanesulfonamide]	< 500 nM	< 10 nM		
FC(F)c1ccc2ncc(-c3cc(N4Cc5ccncc5C4)ncn3)n2n1 [II-28, 3-(6-(1H-Pyrrolo[3,4-c]pyridin-2(3H)-yl)pyrimidin-4-yl)-6-(difluoromethyl)imidazo[1,2-b]pyridazine]	< 500 nM	10 to 1000 nM		
CC(=O)N1CCN(c2ccnc(-c3cnc4ccc(C(F)F)nn34)c2)CC1 [II-127, 1-(4-(2-(6-(Difluoromethyl)imidazo[1,2-b]pyridazin-3-yl)pyridin-4-yl)piperazin-1-yl)ethanone]	500 to 5000 nM	10 to 1000 nM		
NS(=O)(=O)NCC1CN(c2cc(-c3cnc4ccc(C(F)F)nn34)ncn2)CCO1 (stereo not shown) [II-347, N-((4-(6-(6-(Difluoromethyl)imidazo[1,2-b]pyridazin-3-yl)pyrimidin-4-yl)morpholin-2-yl)methyl)sulfuric diamide]	< 500 nM	< 10 nM		
CC1CC(C)(O)C(CNS(C)(=O)=O)CN1c1cc(-c2cnc3ccc(C(F)F)nn23)ncn1 (stereo not shown) [II-367, N-((1-(6-(6-(Difluoromethyl)imidazo[1,2-b]pyridazin-3-yl)pyrimidin-4-yl)-4-hydroxy-4,6-dimethylpiperidin-3-yl)methyl)methanesulfonamide]	500 to 5000 nM	10 to 1000 nM		
CC1(C)COCCN1c1cc(-c2cnc3ccc(C(F)F)nn23)ncn1 [II-402, 4-(6-(6-(Difluoromethyl)imidazo[1,2-b]pyridazin-3-yl)pyrimidin-4-yl)-3,3-dimethylmorpholine]	> 5000 nM	10 to 1000 nM		
FC(F)c1ccc2ncc(-c3cc(N4CCOC(Cn5cncn5)C4)ncn3)n2n1 (stereo not shown) [II-326, 2-((1H-1,2,4-Triazol-1-yl)methyl)-4-(6-(6-(difluoromethyl)imidazo[1,2-b]pyridazin-3-yl)pyrimidin-4-yl)morpholine]	> 5000 nM	10 to 1000 nM		
CCN1CCN(c2cc(-c3cnc4ccc(C(F)F)nn34)ncn2)C(C)C1CNS(C)(=O)=O (single isomer, unassigned) [II-542, N-((4-(6-(6-(Difluoromethyl)imidazo[1,2-b]pyridazin-3-yl)pyrimidin-4-yl)-1-ethyl-3-methylpiperazin-2-yl)methyl)methanesulfonamide]	< 500 nM	< 10 nM		
COc1cc(-c2cnc3ccc(C(F)F)nn23)cc(N2CCC[C@H](CNS(C)(=O)=O)C2)n1 [II-120, (S)—N-((1-(4-(6-(Difluoromethyl)imidazo[1,2-b]pyridazin-3-yl)-6-methoxypyridin-2-yl)piperidin-3-yl)methyl)methanesulfonamide]	> 5000 nM	< 10 nM		
NC(=O)CC1CCCN(c2cc(-c3cnc4ccc(C(F)F)nn34)ccn2)C1 (stereo not shown) [II-145, 2-(1-(4-(6-(Difluoromethyl)imidazo[1,2-b]pyridazin-3-yl)pyridin-2-yl)piperidin-3-yl)acetamide]	500 to 5000 nM	10 to 1000 nM		
OC1CCN(C2CCN(c3cc(-c4cnc5ccc(C(F)F)nn45)ncn3)C2)C1 (stereo not shown) [II-352, 1′-(6-(6-(Difluoromethyl)imidazo[1,2-b]pyridazin-3-yl)pyrimidin-4-yl)-[1,3′-bipyrrolidin]-3-ol]	> 5000 nM	10 to 1000 nM		
